We go through one compound from patent US7534871B2, “Preparation and use of carbohydrate-based bicyclic ring structures with antimicrobial and cytostatic activity” (Kemin Pharma B.V.B.A., priority 2004, dated 2009).

Broadly, the EC50 is the concentration needed to bring the measured effect to its halfway point.

Structures are written as SMILES. Values after ≈ are worked out from the molar mass of the structure shown. Bounds are passed on as bounds.

One assay deals with HIV-1 (IIIB). The experiment in a line: microbe, parasite or virus in culture. As to conditions: Human immunodeficiency virus 1, IIIB, CCRF-CEM; concentration required to inhibit HIV-induced cytopathicity in human CEM cell cultures by 50%. The class given is cell-based. On the technique in general: Protection from cytopathic effect is a common read-out in antiviral testing.
Consider `CO[C@@H]1[C@@H](OC)[C@H](Sc2ccccc2)O[C@@H]2COCC=CCO[C@@H]12` [KPE00001014], for which the EC50 was > 100 µg/mL.

For the next assay, the system named is HIV-2 (ROD). The experiment in a line: Anti-viral activity: HIV-2-induced cytopathicity in human CEM cell cultures. The class given is cell-based. Conditions: Human immunodeficiency virus 2, CCRF-CEM; concentration required to inhibit HIV-induced cytopathicity in human CEM cell cultures by 50%.
For the compound `CO[C@@H]1[C@@H](OC)[C@H](Sc2ccccc2)O[C@@H]2COCC=CCO[C@@H]12` [KPE00001014], the EC50 is > 100 µg/mL.

Another assay has as its system HSV-1 (KOS). The experiment in a line: Anti-viral activity: HSV-1-induced cytopathicity in human embryo fibroblast E6SM cell cultures. The class given is cell-based, herpes simplex virus (HSV). Conditions: Human alphaherpesvirus 1, 50%.
Turning to `CO[C@@H]1[C@@H](OC)[C@H](Sc2ccccc2)O[C@@H]2COCC=CCO[C@@H]12` [KPE00001014], the EC50 is > 400 µg/mL.

The next assay relates to HSV-2 (G). The experiment in a line: Anti-viral activity: HSV-2-induced cytopathicity in human embryo fibroblast E6SM cell cultures. As to conditions: Human alphaherpesvirus 2, 50%. The class given is cell-based, herpes simplex virus (HSV).
Take `CO[C@@H]1[C@@H](OC)[C@H](Sc2ccccc2)O[C@@H]2COCC=CCO[C@@H]12` [KPE00001014]: the EC50 was found to be 240 µg/mL (≈ 681 µM).

The test system of another assay is VV. Description: microbe, parasite or virus in culture. The class given is cell-based. Conditions: Orthopoxvirus vaccinia, E6SM, read-out: EC50 VV (E6SM).
As for `CO[C@@H]1[C@@H](OC)[C@H](Sc2ccccc2)O[C@@H]2COCC=CCO[C@@H]12` [KPE00001014], the EC50 is > 400 µg/mL.

A further assay relates to VZV OKA. The experiment in a line: microbe, parasite or virus in culture. The class given is cell-based, varicella zoster virus (VZV). Conditions: Human alphaherpesvirus 3, HEL, read-out: EC50 VZV (HEL) OKA.
As for `CO[C@@H]1[C@@H](OC)[C@H](Sc2ccccc2)O[C@@H]2COCC=CCO[C@@H]12` [KPE00001014], the EC50 is > 50 µg/mL.

The next assay has as its system VZV YS. Description: Anti-viral activity: VZV-induced plaque formation in HEL cell cultures, YS strain. As to conditions: Human alphaherpesvirus 3, VZV-induced plaque formation in human embryonic lung HEL cell cultures, 50%. The class given is cell-based, varicella zoster virus (VZV).
As for `CO[C@@H]1[C@@H](OC)[C@H](Sc2ccccc2)O[C@@H]2COCC=CCO[C@@H]12` [KPE00001014], the EC50 was > 50 µg/mL.

In another assay the test system is CMV AD-169 strain. The experiment in a line: Anti-CMV activity: plaque reduction in HEL cells, AD-169 strain. The class given is cell-based, human cytomegalovirus (CMV). As to conditions: Human betaherpesvirus 5, AD169, HEL; Table 2; reduce virus plaque formation by 50%; virus input 100 PFU; read-out: IC50 CMV AD-169 Strain.
In the case of `CO[C@@H]1[C@@H](OC)[C@H](Sc2ccccc2)O[C@@H]2COCC=CCO[C@@H]12` [KPE00001014], the IC50 was > 50 µg/mL.

The subject of another assay is murine leukemia cells (L1210/0). Description: Cytostatic activity: inhibition of proliferation of L1210/0 cells. The class given is cell-based. As to conditions: Mus musculus, L1210/0; 50% inhibitory concentration, cell proliferation; read-out: IC50 L1210/0. The protocol:
(§1) The compounds were tested for anti-tumor activity via the inhibitory effects on the proliferation of murine leukemia cells (L1210/0), murine mammary carcinoma cells (FM3A), human T-lymphocyte cells (Molt4/C8, CEM/0) and human cervix carcinoma cells (HeLa).
For the compound `CO[C@@H]1[C@@H](OC)[C@H](Sc2ccccc2)O[C@@H]2COCC=CCO[C@@H]12` [KPE00001014], the IC50 was > 200 µg/mL.

In the next assay the test system is murine mammary carcinoma cells (FM3A). Description: Cytostatic activity: inhibition of proliferation of FM3A cells. The class given is cell-based. As to conditions: Mus musculus, 50% inhibitory concentration, cell proliferation, read-out: IC50 FM3A/0. The protocol: as §1
For `CO[C@@H]1[C@@H](OC)[C@H](Sc2ccccc2)O[C@@H]2COCC=CCO[C@@H]12` [KPE00001014], the IC50 is > 200 µg/mL.

Another assay deals with human T-lymphocyte cells (Molt4/C8). Description: Cytostatic activity: inhibition of proliferation of Molt4/C8 cells. The class given is cell-based. As to conditions: Molt4/C8, 50% inhibitory concentration, cell proliferation, read-out: IC50 Molt4/C8. The protocol: as §1
For `CO[C@@H]1[C@@H](OC)[C@H](Sc2ccccc2)O[C@@H]2COCC=CCO[C@@H]12` [KPE00001014], the IC50 is > 200 µg/mL.

The next assay relates to human T-lymphocyte cells (CEM/0). The experiment in a line: Cytostatic activity: inhibition of proliferation of CEM/0 cells. The class given is cell-based. As to conditions: CCRF-CEM, 50% inhibitory concentration, cell proliferation, read-out: IC50 CEM/0. The protocol: as §1
As for `CO[C@@H]1[C@@H](OC)[C@H](Sc2ccccc2)O[C@@H]2COCC=CCO[C@@H]12` [KPE00001014], the IC50 is > 200 µg/mL.

For the next assay, the system named is human cervix carcinoma cells (HeLa). The experiment in a line: Cytostatic activity: inhibition of proliferation of HeLa cells. The class given is cell-based. Conditions: 50% inhibitory concentration, cell proliferation. The protocol:
as §1
For the compound `CO[C@@H]1[C@@H](OC)[C@H](Sc2ccccc2)O[C@@H]2COCC=CCO[C@@H]12` [KPE00001014], the IC50 was > 200 µg/mL.

The test system of another assay is E. faecalis ATTC29212 LMG 8222. The experiment in a line: Anti-bacterial activity, Bioscreen C growth curve: E. faecalis. The class given is cell-based. Conditions: Enterococcus faecalis, LMG8222, 35° C., 16 hours, negative control = 100, read-out: % of growth at 25 PPM compared to the negative control, E. faecalis ATTC29212 LMG 8222. The protocol: (§2) For the determination of the anti-bacterial and anti-fungal activity the Bioscreen C Analyser Labsystems, Finland, was used. This is an automated reader-incubator. It measures growth continuously by vertical photometry (optical density), processes the data and provides a print out of the results. The area under the growth curve is automatically determined via the Biolink software.
(§3) The inoculum size of the bacteria is standardized to approximately 5×10^5 CFU/ml.
(§4) For bacteria, the 100-honey-well plates containing test chemical, Mueller-Hinton broth and inoculum (=sample) are incubated at 35° C. for 16 hours. Also wells without inoculum are incubated (=blanco). Yeasts are incubated 35° C. for 24 hours in RPMI 1640+MOPS buffer at 165 mM. Moulds also in RPMI 1640+MOPS buffer at 165 mM are incubated 25° C. for 5 days. All micro-organisms are screened against a known concentration of the reference antibiotics or antimycotics such as vancomycin, penicillin G, gentamicin or amphotericin B. The growth curve and the area under the growth curve can be determined using the Biolink software; this is illustrated in FIG. 1.
(§5) The area of the blanco is subtracted from the area of the sample, this number (delta) gives us an indication of the biological activity of the molecules tested and can be expressed as a % of growth at a specific dose compared to a negative control that has a value of 100, illustrated in FIG. 2. Screening of each dose of a specific compound is repeated 5 times. The dose used for all new molecules in all tests is 25 PPM or 25 μg/ml.
(§6) In Table 4 the results of the anti-bacterial activity is given for the new molecules. The micro-organisms used are Staphylococcus aureus, MRSA, VRE, Enterococcus faecalis, Salmonella typhimurium and Pseudomonas aeruginosa.
With `CO[C@@H]1[C@@H](OC)[C@H](Sc2ccccc2)O[C@@H]2COCC=CCO[C@@H]12` [KPE00001014], the activity at 25 ppm turned out to be 95%.

A further assay relates to VRE ATCC700221. Description: Anti-bacterial activity, Bioscreen C growth curve: VRE. The class given is cell-based, vancomycin-resistant Enterococcus (VRE). Conditions: Enterococcus, 35° C., 16 hours, negative control = 100, read-out: % of growth at 25 PPM compared to the negative control, VRE ATCC700221. The protocol:
as §2, §3, §4, §5, §6
For `CO[C@@H]1[C@@H](OC)[C@H](Sc2ccccc2)O[C@@H]2COCC=CCO[C@@H]12` [KPE00001014], the activity at 25 ppm amounted to 88.4%.

The subject of another assay is S. aureus ATTC29213 LMG10147. Description: Anti-bacterial activity, Bioscreen C growth curve: S. aureus. The class given is cell-based. Conditions: Staphylococcus aureus, 35° C., 16 hours, negative control = 100, read-out: % of growth at 25 PPM compared to the negative control, S. aureus ATTC29213 LMG10147. The protocol: as §2, §3, §4, §5, §6
For the compound `CO[C@@H]1[C@@H](OC)[C@H](Sc2ccccc2)O[C@@H]2COCC=CCO[C@@H]12` [KPE00001014], the activity at 25 ppm amounted to 105%.

The subject of another assay is MRSA ATCC33591. Description: Anti-bacterial activity, Bioscreen C growth curve: MRSA. The class given is cell-based, methicillin-resistant Staphylococcus aureus (MRSA). Conditions: Staphylococcus aureus, ATCC 33591 / LMG10147 / MRSA; 25 PPM; 35° C., 16 hours; negative control = 100; read-out: % of growth at 25 PPM compared to the negative control, MRSA ATCC33591 LMG10147. The protocol: as §2, §3, §4, §5, §6
On to `CO[C@@H]1[C@@H](OC)[C@H](Sc2ccccc2)O[C@@H]2COCC=CCO[C@@H]12` [KPE00001014], for which the activity at 25 ppm is 113%.

Another assay concerns P. aeruginosa ATCC27853 LMG16217. Description: Anti-bacterial activity, Bioscreen C growth curve: P. aeruginosa. The class given is cell-based, Pseudomonas aeruginosa. As to conditions: Pseudomonas aeruginosa; 25 PPM; 35° C., 16 hours; negative control = 100; read-out: % of growth at 25 PPM compared to the negative control, P. aeruginosa ATCC27853 LMG16217. The protocol: as §2, §3, §4, §5, §6
For `CO[C@@H]1[C@@H](OC)[C@H](Sc2ccccc2)O[C@@H]2COCC=CCO[C@@H]12` [KPE00001014], the activity at 25 ppm stood at 96.7%.

Another assay has as its system S. typhimurium ATTC700408. The experiment in a line: Anti-bacterial activity, Bioscreen C growth curve: S. typhimurium. The class given is cell-based. As to conditions: Salmonella enterica, LMG16217 / TYPHIMURIUM, 35° C., 16 hours, negative control = 100, read-out: % of growth at 25 PPM compared to the negative control, S. typhimurium ATTC700408 LMG16217. The protocol:
as §2, §3, §4, §5, §6
`CO[C@@H]1[C@@H](OC)[C@H](Sc2ccccc2)O[C@@H]2COCC=CCO[C@@H]12` [KPE00001014]: the activity at 25 ppm came out at 87.2%.

The test system of the next assay is Candida albicans IHEM 10284 - ATCC 24433. The experiment in a line: Anti-fungal activity, Bioscreen C growth curve: Candida albicans (yeast). As to conditions: Candida albicans, ATCC24433; 25 PPM; 35° C., 24 hours; negative control = 100; read-out: % of growth at a dose of 25 PPM compared to the negative control, Candida albicans IHEM 10284 - ATCC 24433. The class given is cell-based. The protocol: as §2
The inoculum size of the yeast is standardized to 0.5-2.5×10^3 CFU/ml.
as §4, §5
(§7) In Table 5 the anti-fungal activity is given for the new molecules. The micro-organisms used were Candida albicans (a typical yeast) and Microsporum gypseum (a typical mold).
(§8) Also for the determination of the anti-fungal activity the Bioscreen C Analyser Labsystems Oy, Finland was used. It measures growth continuously by vertical photometry (optical density), processes the data and provides a print out of the results. The area under the growth curve is automatically determined via the Biolink software.
(§9) The inoculum size of the yeast is standardized to 0.5-2.5×10^3 CFU/ml. The inoculum size of the mould is standardized to 0.4-5.0×10^4 CFU/ml. Yeasts are incubated 35° C. for 24 hours in RPMI 1640+MOPS buffer at 165 mM. Moulds also in RPMI 1640+MOPS buffer at 165 mM are incubated 25° C. for 5 days.
(§10) As a control, all micro-organisms are screened against some reference antibiotics with known MIC. Screening of each dose of a specific compound is repeated 5 times.
Consider `CO[C@@H]1[C@@H](OC)[C@H](Sc2ccccc2)O[C@@H]2COCC=CCO[C@@H]12` [KPE00001014], for which the activity at 25 ppm was 96%.

The test system of a further assay is Microsporum gypseum IHEM 3999 - ATCC 14683. Description: Anti-fungal activity, Bioscreen C growth curve: Microsporum gypseum (mold). Conditions: Nannizzia gypsea, ATCC14683, 120 h; 25 PPM; 25° C., 5 days; negative control = 100; read-out: % of growth at a dose of 25 PPM compared to the negative control, Microsporum gypseum IHEM 3999 - ATCC 14683. The class given is cell-based. The protocol:
as §2
The inoculum size of the mould is standardized to 0.4-5.0×10^4 CFU/ml.
as §4, §5, §7, §8, §9, §10
With `CO[C@@H]1[C@@H](OC)[C@H](Sc2ccccc2)O[C@@H]2COCC=CCO[C@@H]12` [KPE00001014], the activity at 25 ppm was found to be 69%.
